Measured values published in patent US6455041B1, “Immunogenic epitopes of the human zona pellucida protein (ZP1)” (priority 1998, dated 2002).

Experiments:
[1] = system: antibodies from baboons immunized with HSZP; test: Biotinylated peptide assay, antisera from baboons immunized with porcine ZP (HSPZ); type: binding, baboon; conditions: for peptide recognition by sera of individual baboons: four baboons (#1994, #2020, #2044, #2032) immunized with HSZP, sera 3 weeks after second booster, dilution 1/1000, FIGS. 2A-2D; for peptide recognition by baboon serum pool: pooled antisera from baboons immunized with HSZP, TiterMax adjuvant, FIG. 1C
Protocol: Lyophilized porcine ZP immogen was prepared and solubilized in 0.1 M sodium carbonate, pH 9.6 and heated at 60° C. for ten minutes as previously described (42, 45). Immunogen was emulsified in Titer Max adjuvant (50%) by passage through syringes with 19 gauge needles connected by tygon tubing. Animals were sedated with Ketarmine (10 mg/kg) prior to injection with 200 μl containing ^150 μg ZP immunogen (primary and boosts). Animals were immunized and boosted at 3 week and 6 week intervals.
Blood samples were collected at approximately 3 week intervals following the booster injections, and were obtained from femoral veins under Ketamine sedation. Serum was isolated by conventional methods an conveyed frozen to the U.S.A. laboratory facility for analysis. For the present studies, serum samples taken at three weeks following the second booster injection were used. The ELISA assay previously described by Drell and Dunbar, 1984 (46) was used to determine the levels of antibody against immobilized HSPZ. Antisera previously obtained from baboons immunized against electrophoretically purified porcine ZP1 (35) were used as a positive control for these assays. Nonimmune sera from animals immunized with adjuvant alone were used as a negative control.
(§1) Peptides containing 15 amino acid residues, which overlapped by 9 amino acids, were designed to ensure that all potential epitopes would be identified. Biotinylated peptides (BP) containing 15-mers with a 9-amino acid overlap were synthesized by Chiron Mimotopes Pty. Ltd. (Victoria, Australia).
(§2) For the assay, streptavidin (Sigma Chemicals, S-4762) was diluted to 5 μg/ml in deionized water and dispensed at 100 μl well into 96-well microtiter plates (Immulon 2, Dynatech Labs) and plates are incubated overnight at 32° C. to evaporate to complete dryness. Plates were then rinsed four times in wash buffer of pH 7.3, consisting of 0.02M sodium phosphate containing 0.15M NaCl and 0.05% Tween 20. The plates were blocked using 200 μl 0.02M sodium phosphate buffered saline (PBS) containing 2% nonfat dried milk (pH 8.8) for 2 hours at room temperature and the rinse was repeated. Blocking and all incubations were carried out using a Minimix shaker (Fisher). Biotinylated peptides were then dispensed such that the final: dilution of each was 1:10,000 and was made in wash buffer containing 2% nonfat dried milk. Peptides (100 μl per well) were incubated overnight at 4° C. on the shaker.
Initially, each peptide was solubilized in 200 μl of DMSO per manufacturers' instructions and stored this long term at −80° C. Approximately 2 μl was used to make a 1:5,000 stock solution diluted in PBs containing 0.1% BSA and 0.1% sodium aside. These stocks were then stored at −20° C. and are diluted 1:10,000 for assays. […]

[2] = system: antibodies from rabbits immunized with heat solubilized, native porcine ZP proteins (HSZP); test: Biotinylated peptide assay, pooled antisera from rabbits immunized with porcine ZP (HSPZ); type: binding, rabbit; conditions: Complete Freund's Adjuvant, FIG. 1B
Protocol: as §1
as §2, with “Peptides (100 μl per well) were incubated overnight at 4° C. on the shaker.” left out
(§3) After rinsing with blocking solution, 100 μl/well of antibody solution was added and plates incubated at RT for 2 hours with shaking. […] The plates were incubated at RT with shaking for 45 minutes and read in a Titertek Multiskan reader at 405 nm. […]

[3] = system: antibodies in sera of baboons administered electrophoretically purified, denatured porcine ZP proteins; test: Biotinylated peptide assay, sera from baboons immunized with chemically deglycosylated, electrophoretically purified porcine ZP proteins; type: binding, baboon; conditions: two baboons immunized with deglycosylated, FIGS. 3A-3B
Protocol: as §1
as §2, with “Biotinylated peptides were then dispensed such that the final: dilution of each was 1:10,000 and was made in wash buffer containing 2% nonfat dried milk. Peptides (100 μl per well) were incubated overnight at 4° C. on the shaker.” left out
as §3
Additional sera from baboons administered electrophoretically purified, denatured porcine ZP proteins as the immunogen (35), were evaluated. […]

Substance | peptide recognition by sera of individual baboons [1] | peptide recognition by baboon serum pool [1] | peptide recognition by rabbit serum pool [2] | peptide recognition by baboon sera [3]
54 (SGSGFPETQPGPLTLELQI; listed as Homo sapiens) [compound 54] | all four of the animals recognized | recognized by both serum pools | recognized by both serum pools | again recognized by the baboon sera
55 (SGSGGPLTLELQIAKDKNY; listed as Homo sapiens) [compound 55] | all four of the animals recognized | recognized by both serum pools | recognized by both serum pools | again recognized by the baboon sera
